Reference: patent publication US6541497B1, “Hypoglycemic and hypolipidemic compounds” (Eli Lilly and Company, priority 1996, dated 2003)

Legend:
[1] = tested on: Male obese-diabetic viable yellow (A^vy) mice; assay: Serum/blood glucose after 14 days of feeding compound admixed in chow; type: in vivo
Method: (§1) Male obese-diabetic viable yellow (A^vy) mice were divided into two groups of 6 each. One group was fed repelletized Purina 5008 Chow and the second group was fed a repelletized chow consisting of Purina 5008 Chow, admixed with varying doses of the candidate compound. Blood samples were taken before the experiment was initiated and 14 days after initiation. Body weight and food consumption were monitored. The blood glucose level after 14 days of treatment was measured and recorded as a percent of the initial value, compared to the untreated control (first) group. The results are presented in the table below and include the dose of the candidate compound as a weight percent of the amount incorporated into the diet. The positive control is a known hypoglycemic agent (J. Med. Chem. 35:2617, 1992) administered in the same way as a compound of the present invention.

[2] = tested on: Male obese-diabetic viable yellow (A^vy) mice; assay: Serum/plasma triglycerides after 14 days in the same feeding study; type: in vivo; conditions: untreated about 4 mmol/mL
Method: as §1
In the same feeding study described above, plasma triglycerides were measured against a glycerol standard using reagents from Sigma Kit No. 339 (St. Louis, Mo.), adapted for assay on the Monarch System (Instrumentation Laboratory, Lexington, Mass.). Day 14 levels are recorded below as mM of triglycerides per mL. Serum triglyceride values for untreated animals averaged about 4 mmol/mL.

[3] = dose 0.03 (mg/100 g food) in diet
[4] = dose 0.01 (mg/100 g food) in diet

4-[2-(2-Phenyl-4-oxazolyl)ethoxy]benzyl-N-CBZ-L-serine [Example No. 7]
Serum Glucose after 14 days % of day 0 value [1, 3]: 34 % of day 0 value
Serum Triglyceride after 14 days [2, 3]: 0.4 mM

Cc1oc(-c2ccccc2)nc1CCOc1ccc(CC(NC(=O)OCc2ccccc2)C(=O)O)cc1 (racemic) [Example No. 9, O-[2-(5-Methyl-2-phenyl-4-oxazolyl)ethyl]-N-CBZ-D,L-tyrosine]
Serum Glucose after 14 days % of day 0 value [1, 3]: 66 % of day 0 value
Serum Triglyceride after 14 days [2, 3]: 2.5 mM
melting point: 142 to 143 °C

N[C@@H](Cc1ccc(OCCc2coc(-c3ccccc3)n2)cc1)C(=O)O [Example 3, O-[2-(2-Phenyl-4-oxazolyl)ethyl]-L-tyrosine]
melting point: 231 to 235 °C

N[C@@H](Cc1ccc(OCCc2coc(-c3ccccc3)n2)cc1)C(=O)N(O)C(=O)OCc1ccccc1 [Example 11, O-[2-(2-Phenyl-4-oxazolyl)ethyl]-N-CBZ-L-tyrosine hydroxamic acid]
melting point: 198 to 199 °C

O=C(COc1ccccc1)N[C@@H](Cc1ccc(OCCc2coc(-c3ccccc3)n2)cc1)C(=O)O [Example 12, O-[2-(2-Phenyl-4-oxazolyl)ethyl]-N-phenoxyacetyl-L-tyrosine]
melting point: 94 to 97 °C

O=C(N[C@@H](Cc1ccc(OCCc2coc(-c3ccccc3)n2)cc1)C(=O)O)c1ccc(Cl)cc1 [Example 13, O-[2-(2-Phenyl-4-oxazolyl)ethyl]-N-4-chlorobenzoyl-L-tyrosine]
melting point: 158 to 161 °C

O=C(O)[C@H](Cc1ccc(OCCc2coc(-c3ccccc3)n2)cc1)NS(=O)(=O)Cc1ccccc1 [Example 14, O-[2-(2-Phenyl-4-oxazolyl)ethyl]-N-phenylmethylsulfonyl-L-tyrosine]
melting point: 141 to 143 °C

O=C(N[C@@H](Cc1ccc(OCCc2cccc3ccccc23)cc1)C(=O)O)OCc1ccccc1 [Example 15, O-[2-(1-Naphthyl)ethyl]-N-CBZ-L-tyrosine]
melting point: 80 to 83 °C

O=C(N[C@@H](Cc1ccc(OCCc2coc(-c3ccccc3)n2)cc1)C(=O)O)OCc1ccc(Br)cc1 [Example 16, O-[2-(2-Phenyl-4-oxazolyl)ethyl]-N-(4-bromobenzyloxycarbonyl)-L-tyrosine]
melting point: 173 to 176 °C

O=C(N[C@@H](Cc1ccc(OCCc2coc(-c3ccccc3)n2)cc1)C(=O)O)OCc1ccc(C(F)(F)F)cc1 [Example 17, O-[2-(2-Phenyl-4-oxazolyl)ethyl]-N-(4-trifluoromethylbenzyloxycarbonyl)-L-Tyrosine]
melting point: 177 to 180.5 °C

COc1ccc(COC(=O)N[C@@H](Cc2ccc(OCCc3coc(-c4ccccc4)n3)cc2)C(=O)O)cc1 [Example 18, O-[2-(2-Phenyl-4-oxazolyl)ethyl]-N-(4-methoxybenzyloxycarbonyl)-L-tyrosine]
melting point: 132.5 to 135.5 °C

CCCCc1ccc(COC(=O)N[C@@H](Cc2ccc(OCCc3coc(-c4ccccc4)n3)cc2)C(=O)O)cc1 [Example 19, O-[2-(2-Phenyl-4-oxazolyl)ethyl]-N-(4-n-Butylbenzyloxycarbonyl)-L-tyrosine]
melting point: 86 to 89 °C

O=C(NCc1ccccc1)N[C@@H](Cc1ccc(OCCc2coc(-c3ccccc3)n2)cc1)C(=O)O [Example 20, O-[2-(2-Phenyl-4-oxazolyl)ethyl]-N-(N′-Benzylcarbamoyl)-L-tyrosine]
melting point: 196.5 to 198 °C

O=C(N[C@@H](Cc1ccc(OCCc2coc(-c3ccccc3)n2)cc1)C(=O)O)OCc1ccccc1 [Example No. 1, O-[2-(2-Phenyl-4-oxazolyl)ethyl]-N-CBZ-L-tyrosine]
Serum Glucose after 14 days % of day 0 value [1, 3]: 49 % of day 0 value
Serum Triglyceride after 14 days [2, 3]: 1.3 mM
melting point: 105 to 111 °C

O=C(N[C@@H](Cc1ccc(OCCc2coc(-c3ccccc3)n2)cc1)C(=O)[O-])OCc1ccccc1.[Na+] [Example No. 2, O-[2-(2-Phenyl-4-oxazolyl)ethyl]-N-CBZ-L-tyrosine, sodium salt]
Serum Glucose after 14 days % of day 0 value [1, 3]: 67 % of day 0 value
Serum Triglyceride after 14 days [2, 3]: 3.3 mM
melting point: 204 to 207 °C

O=C(N[C@@H](Cc1ccc(OCCc2coc(-c3ccccc3)n2)cc1)C(=O)O)c1ccccc1 [Example No. 4, O-[2-(2-Phenyl-4-oxazolyl)ethyl]-N-BZ-L-tyrosine]
Serum Glucose after 14 days % of day 0 value [1, 3]: 60 % of day 0 value
Serum Triglyceride after 14 days [2, 3]: 1.5 mM

O=C(Cc1ccccc1)N[C@@H](Cc1ccc(OCCc2coc(-c3ccccc3)n2)cc1)C(=O)O [Example No. 5, O-[2-(2-Phenyl-4-oxazolyl)ethyl]-N-phenylacetyl-L-tyrosine]
Serum Glucose after 14 days % of day 0 value [1, 3]: 57 % of day 0 value
melting point: 146 to 151 °C

Cc1ccc(C(=O)N[C@@H](Cc2ccc(OCCc3coc(-c4ccccc4)n3)cc2)C(=O)O)cc1 [Example No. 6, O-[2-(2-Phenyl-4-oxazolyl)ethyl]-N-4-methylbenzoyl-L-tyrosine]
Serum Glucose after 14 days % of day 0 value [1, 3]: 65 % of day 0 value
Serum Triglyceride after 14 days [2, 3]: 2.3 mM
melting point: 180 to 182 °C

CN(C(=O)OCc1ccccc1)[C@@H](Cc1ccc(OCCc2coc(-c3ccccc3)n2)cc1)C(=O)O [Example No. 8, O-[2-(2-Phenyl-4-oxazolyl)ethyl]-N-methyl-N-CBZ-L-tyrosine]
Serum Glucose after 14 days % of day 0 value ([1]; dose 0.06 (mg/100 g food) in diet): 75 % of day 0 value
Serum Triglyceride after 14 days [2, 3]: 3.6 mM

NC(=O)[C@H](Cc1ccc(OCCc2coc(-c3ccccc3)n2)cc1)NC(=O)OCc1ccccc1 [Example No. 10, O-[2-(2-Phenyl-4-oxazolyl)ethyl]-N-CBZ-L-tyrosine carboxamide]
Serum Glucose after 14 days % of day 0 value [1, 3]: 88 % of day 0 value

O=C(NC(Cc1cccc(OCCc2coc(-c3ccccc3)n2)c1)C(=O)O)OCc1ccccc1 (stereo not drawn) [Example No. 21, α-(3-[2-(2-Phenyl-4-oxazolyl)ethoxy]benzyl)-N-CBZ glycine]
Serum Glucose after 14 days % of day 0 value [1, 3]: 48 % of day 0 value
Serum Triglyceride after 14 days [2, 3]: 1.4 mM
melting point: 149 to 151 °C (dec.)

Cc1oc(-c2ccccc2)nc1CCOc1ccc(C[C@H](NC(=O)OCc2ccccc2)C(=O)O)cc1 [Example No. 22, O-[2-(5-Methyl-2-phenyl-4-oxazolyl)ethyl]-N-CBZ-L-tyrosine]
Serum Glucose after 14 days % of day 0 value [1, 3]: 53 % of day 0 value
melting point: 75 to 95 °C

O=C(N[C@@H](COCc1cccc(OCCc2coc(-c3ccccc3)n2)c1)C(=O)O)OCc1ccccc1 [Example No. 24, O-(3-(2-(2-Phenyl-4-oxazolyl)ethoxy]benzyl)-N-CBZ serine]
Serum Glucose after 14 days % of day 0 value [1, 4]: 88 % of day 0 value
Serum Triglyceride after 14 days [2, 4]: 0.3 mM
melting point: 55 to 57 °C

CC(C)(Oc1ccc(Cl)cc1)C(=O)O [clofibric acid, reference compound]
Serum Triglyceride after 14 days ([2]; dose 0.10 (mg/100 g food) in diet): 1.9 mM
